Columns and labels:
Format in all cases: physicochemical
[1] = Polymorphic stability on storage at defined temperature and relative humidity
Text: (§1) Crystalline Form ACB3 of Acalabrutinib may have advantageous properties as described herein above.

[2] = Polymorphic stability on heating; conditions: heated to about 100° C. over about 30 minutes
Text: as §1

[3] = Polymorphic stability towards grinding
Text: as §1

CC#CC(=O)N1CCC[C@H]1c1nc(-c2ccc(C(=O)Nc3ccccn3)cc2)c2c(N)nccn12 [Form ACB3, 4-{8-Amino-3-[(2S)-1-(2-butynoyl)-2-pyrrolidinyl]imidazo[1,5-a]pyrazin-1-yl}-N-(2-pyridinyl)benzamide]
polymorphically stable: polymorphic stability on storage ([1]; 40° C., RH of about 75%, at least 1 month) | polymorphic stability on storage ([1]; room temperature, RH of about 60%, at least 1 month) | polymorphic stability on storage ([1]; room temperature, RH of about 80%, at least 7 days) | polymorphic stability when heated [2] | polymorphic stability towards solvent grinding ([3]; solvent grinding) | polymorphic stability towards strong dry grinding ([3]; strong dry grinding)
